Measurements taken from patent US7025968B2, “CMV vaccines” (ChemoCentryx, Inc., priority 2000, dated 2006).
pIC50, pKi: −log10 of the molar value.

How the values were obtained:
[1] = test system: Wild type HCMV virions expressing US28; experiment: 125I-fractalkine binding to virions (Example 4), wild type HCMV; set-up: species or system human CMV strain Toledo; conditions: 3 hours at 4° C., FIG. 7
Procedure: (§1) Human dermal fibroblast (HDF) were infected at an MOI of 3 with human CMV strain Toledo or a Toledo strain in which the US28 gene had been replaced with a green fluorescent protein/gpt resistance cassette (Toledo deltaUS28) (see, e.g., Vieira, J. et al. (1998) J. Virol. 72:S158-65). Alternatively, rhesus dermal fibroblasts (RhDF) were infected at an MOI of 3 with rhesus CMV strain 68.1 (see ATCC # VR-677). At 96 hours post infection supernatants were collected.
(§2) Supernatants were cleared by two spins at 1,500 rpm for 5 minutes in a bench top centrifuge. Virions were pelleted from the supernatant for 30 minutes at 10,000 rpm in a Beckman JA-21 or J-14 centrifuge or other similar centrifuge and resuspended in 0.5 ml TN buffer (0.05 M Tris/HCl, pH 7.4, 0.1M NaCl) then layered onto a 5 ml sucrose density gradient (20% to 70% w/v sucrose in TN) in a SW 50 centrifuge tube. Gradients were spun 90 minutes at 24,000 rpm in a Beckman SW50 centrifuge at 10° C. […]
(§3) Following incubation, the assay wells were harvested under vacuum using filter plates, pre-soaked with PEI solution. Scintillation fluid was added, the plates sealed and the radioactivity in the various wells counted.

[2] = test system: virions with deletion of US28 from the genome (TolΔUS28); experiment: 125I-fractalkine binding to purified US28-deleted HCMV virions (Example 1); conditions: FIG. 5
Procedure: (§4) Human dermal fibroblasts were infected with HCMV strain Toledo or HCMV TolΔUS28 (Streblow et al., 1999, Cell 99:511-20) at an MOI of 0.01 and maintained at 37° C. and 5% CO2 in Dulbecco's minimal essential medium with 10% fetal calf serum and fed as necessary. At day 15 post infection supernatant was collected and clarified by two rounds of centrifugation at 400 g. Virions from the clarified supernatant were pelleted at 10,000 g, resuspended in TN (50 mM TRIS-Cl pH 7.5, 100 mM NaCl), and purified over two consecutive 20-70% sucrose gradients by standard techniques (Britt W J., 1984, Virology 135: 369-78). Virions were resuspended in 500 ul of assay buffer (20 mM HEPES, 140 mM NaCl, 1 mM CaCl2, 5 mM MgCl2, and with 0.2% bovine serum albumin) and 0.09 mL added to each well of assay plates containing serial dilutions of fractalkine (concentrations between 0-250 nM) in triplicate.
(§5) Then 0.09 mL of ^125I-fractalkine diluted in assay buffer (final concentration ˜2-10 fM, with ˜30,000 cpm per well) was added, the plates sealed and incubated for approximately 3 hours at 4° C. on a shaker platform. The assay plates were harvested using Packard filter plates, pre-soaked in PEI solution, on the vacuum harvest apparatus. Scintillation fluid (35 μL) was added to all wells, the plates were sealed and counted in a Top Count scintillation counter. […]

[3] = test system: Rhesus dermal fibroblasts infected with Rhesus CMV; experiment: radioligand binding assay, 125I-fractalkine on rhCMV-infected cells (Example 3); conditions: unlabeled fractalkine vs 125I-fractalkine ~50 pM, 2-4 hours at 4° C., FIG. 6; read-out: IC50, reduction of binding of labeled fractalkine to the receptor by 50%
Procedure: Radioligand binding assays were carried our in the following manner. The target cells typically used in these assays were Rhesus dermal fibroblasts which had been infected with Rhesus; CMV for 3-7 days. Lots of cells verified for fractalkine binding were frozen until ready for use. For the assay, cells were thawed, washed, and resuspended in assay buffer (20 mM HEPES pH 7.1, 140 mM NaCl, 1 mM CaCl2, 5 mM MgCl2, and 0.2% bovine serum albumin) to a concentration of from 4×10^5 to 5×10^6 cells/ml.
Serial dilutions of unlabeled fractalkine were prepared as a 10× solution in 20% DMSO, and 0.02 ml was placed in assay plates. Next 0.09 ml of cells was added to the assay plates containing the unlabeled fractalkine. Lastly, 0.09 ml of ^125I-fractalkine diluted in assay buffer (final concentration ˜50 pM, with 20,000-50,000 cpm per well) was added, the plates sealed and incubated for 2-4 hours at 4° C. on a shaker platform. Assay plates were harvested using Packard GF/B filter plates (pre-soaked in 0.3% polyethyleneimmine (PEI) solution) on a Packard vacuum cell harvester. Scintillation fluid was added to all wells, the plates were sealed and then counted in a Top Count scintillation counter. Control wells containing either diluent only (for total counts) or excess unlabeled fractalkine (1 μg/ml, for non-specific binding) were used to calculate the percent of total inhibition. […]

[4] = test system: rhCMV virions purified from RHDF cells; experiment: 125I-fractalkine binding to virions (Example 4), rhCMV; set-up: species or system rhesus CMV strain 68.1; conditions: 3 hours at 4° C., FIG. 7
Procedure: as §1, §2, §3

[5] = target: wild type virions (Toledo); experiment: 125I-fractalkine competition binding to purified HCMV virions (Example 1); set-up: species or system HCMV strain Toledo; conditions: about 3 hours at 4° C., FIG. 5, read-out: IC50, unlabeled fractalkine competing off labeled fractalkine
Procedure: as §4, §5

[6] = target: T1, US28 (Human cytomegalovirus, UniProt P69332); conditions: Kledal et al., 1998; read-out: KI of binding to US28; cited from earlier work
T1 sequence (P69332 1-354): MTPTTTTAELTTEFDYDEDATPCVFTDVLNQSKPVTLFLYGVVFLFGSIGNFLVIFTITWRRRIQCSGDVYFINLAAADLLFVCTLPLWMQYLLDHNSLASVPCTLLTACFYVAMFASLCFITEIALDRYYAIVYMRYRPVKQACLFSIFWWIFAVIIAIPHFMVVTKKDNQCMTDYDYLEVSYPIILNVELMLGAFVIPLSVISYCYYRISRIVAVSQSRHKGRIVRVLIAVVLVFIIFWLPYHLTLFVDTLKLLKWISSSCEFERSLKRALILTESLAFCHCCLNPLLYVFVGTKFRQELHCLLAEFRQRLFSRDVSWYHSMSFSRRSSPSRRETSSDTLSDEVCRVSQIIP

[7] = test system: HCMV virions lacking US28 (Toledo deltaUS28); experiment: 125I-fractalkine binding to virions (Example 4), US28-deleted HCMV; set-up: species or system human CMV strain Toledo deltaUS28; conditions: 3 hours at 4° C., FIG. 7
Procedure: as §1, §2, §3

Q: For “fractalkine: CX3C chemokine, tends to be cell bound; binds with very high affinity to the US28 receptor of HCMV”, which “binding of radiolabeled fractalkine to virions” value [1] is on record?
A: Its value is “bind fractalkine tightly”.

Q: What about the “binding of labeled fractalkine to virions” value [2] of the same substance?
A: The value was “virtually no binding”.

Q: What about the pIC50 [3] of the same substance?
A: Its pIC50 is 10.36.

Q: What about the “binding of radiolabeled fractalkine to virions” value [4] of the same substance?
A: The value was “also bind to fractalkine”.

Q: What about the pIC50 [5] of the same substance?
A: The pIC50 was ~10.40.

Q: What about the pKi [6] of the same substance?
A: The pKi was ~10.30.

Q: What about the “binding of radiolabeled fractalkine to virions” value [7] of the same substance?
A: Its value is “do not bind fractalkine”.
